Results taken from patent US9850283B2, “Macrocyclic inhibitors of the PD-1/PD-L1 and CD80(B7-1)/PD-L1 protein/protein interactions” (BRISTOL-MYERS SQUIBB COMPANY, priority 2013, dated 2017).
Like-named read-outs stand apart in the source and are kept apart here. Positions of bridges follow the written chain, without caps; N, C: chain ends. Non-standard residues stand in square brackets, D forms with d. Residues, ends and D or L forms follow the SMILES beside them. Phe(3,4,5-F3) = N[C@@H](Cc1cc(F)c(F)c(F)c1)C(=O)O; Phe(4-CH2NH2) = NCc1ccc(C[C@H](N)C(=O)O)cc1; Pro(4R-NH2) = N[C@H]1CN[C@H](C(=O)O)C1; d(cisHyp) = O=C(O)[C@H]1C[C@@H](O)CN1; NMeF = CN[C@@H](Cc1ccccc1)C(=O)O; dNMeE = CN[C@H](CCC(=O)O)C(=O)O; NMeNle = CCCC[C@H](NC)C(=O)O; dPip = O=C(O)[C@H]1CCCCN1; dAze = O=C(O)[C@H]1CCN1; Dap = NC[C@H](N)C(=O)O

Columns and labels:
[1] = target: T1, Human PD-L1/PD-1 (Homo sapiens, UniProt Q9NZQ7); experiment: HTRF PD-1-Ig/PD-L1-His binding assay (human PD-L1); conditions: cluster symbol; read-out: HTRF IC50 cluster
T1 construct: made in house; host or cells: HEK293T
Method in brief: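 Ig- and His-fused extracellular PD-1/PD-L1 binding in BSA/Tween-20 dPBS. HTRF with Eu anti-Ig (1 nM final) and APC anti-His (20 nM final).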

[2] = target: T2, LK35.2-hPD-L1 cells / PE-labeled PD-1-Ig (Homo sapiens, UniProt Q9NZQ7); experiment: LK35.2-hPD-L1 cell binding high-content screening assay; format: cell-based; conditions: cluster symbol, read-out: CBA IC50 cluster
T2 construct: expressed in transfected cells; host or cells: LK35.2 mouse B cell line
Method in brief: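 Binding of PE-conjugated human PD-1-Ig (1 nM final) to human PD-L1 stably expressed on a mouse B-cell line (LK35.2) was measured by high-content imaging after washes. Compound and labeled PD-1-Ig were co-incubated 1 h at 37 °C with cells in RPMI/10% FCS.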

[3] = cell line of CBA not given (LK35.2-hPD-L1 or 293T-hPD-L1)
[4] = cell binding assay, cell line not given

T2 sequence (Q9NZQ7 19-290): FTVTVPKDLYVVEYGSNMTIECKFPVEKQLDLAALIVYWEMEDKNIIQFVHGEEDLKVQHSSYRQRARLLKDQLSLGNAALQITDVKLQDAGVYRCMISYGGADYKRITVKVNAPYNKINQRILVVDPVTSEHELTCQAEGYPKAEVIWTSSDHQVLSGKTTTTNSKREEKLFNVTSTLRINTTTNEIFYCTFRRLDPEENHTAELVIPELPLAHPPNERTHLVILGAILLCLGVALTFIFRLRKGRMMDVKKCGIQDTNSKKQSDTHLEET
T1 sequence (Q9NZQ7 with tags, fused parts or gaps): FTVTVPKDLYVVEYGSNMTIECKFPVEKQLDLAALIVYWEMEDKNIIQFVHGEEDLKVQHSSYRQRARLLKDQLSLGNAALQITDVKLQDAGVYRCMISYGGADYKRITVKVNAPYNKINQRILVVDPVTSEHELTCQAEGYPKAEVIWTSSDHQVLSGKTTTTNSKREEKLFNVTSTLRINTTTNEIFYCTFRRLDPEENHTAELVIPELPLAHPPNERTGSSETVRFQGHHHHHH

| SMILES | IC50 [1] | IC50 [2, 3] | IC50 [2, 4] |
| --- | --- | --- | --- |
| CCCC[C@H]1C(=O)N2CCC[C@@H]2C(=O)N[C@@H](CCCCN)C(=O)N[C@@H](C(C)C)C(=O)N(C)[C@@H](Cc2ccccc2)C(=O)N[C@@H](CCC(=O)O)C(=O)N2CCC[C@@H]2C(=O)N[C@@H](Cc2c[nH]c3ccccc23)C(=O)N[C@@H](Cc2ccc(O)cc2)C(=O)N[C@@H](CC(C)C)C(=O)N[C@H](C(=O)NCC(N)=O)CSCC(=O)N[C@@H](Cc2ccccc2)C(=O)N(C)[C@@H](Cc2ccccc2)C(=O)N1C [Example 3190] (HELM PEPTIDE1{[O=C(C[*:3])[*:2]].F.[meF].[CCCC[C@@H](C(=O)[*:2])N(C)[*:1]].[dP].K.V.[meF].E.[dP].W.Y.L.C.G.[am]}$PEPTIDE1,PEPTIDE1,1:R3-14:R3$$$V2.0) | 0.385 to 6.74 nM | 0.158 to 4.71 nM | – |
| CCCC[C@H]1C(=O)N2CCC[C@@H]2C(=O)N[C@@H](CCC(=O)O)C(=O)N[C@@H](C(C)C)C(=O)N(C)[C@@H](Cc2ccccc2)C(=O)N[C@@H](CN)C(=O)N2CCC[C@@H]2C(=O)N[C@@H](Cc2c[nH]c3ccccc23)C(=O)N[C@@H](Cc2ccc(O)cc2)C(=O)N[C@@H](CC(C)C)C(=O)N[C@H](C(=O)NCC(N)=O)CSCC(=O)N[C@@H](Cc2ccccc2)C(=O)N(C)[C@@H](Cc2ccccc2)C(=O)N1C [Example 3191] ({CH2CO}-F[NMeF][NMeNle][dP]EV[NMeF][Dap][dP]WYLCG-NH2; thioether N-13) | 0.385 to 6.74 nM | 4.78 to 72.9 nM | – |
| CCCCC1C(=O)N[C@@H](CCC(=O)O)C(=O)N[C@@H](CC(=O)O)C(=O)N[C@@H](C(C)C)C(=O)N(C)[C@@H](Cc2ccccc2)C(=O)N[C@@H](Cc2ccc(O)cc2)C(=O)N(C)CC(=O)N[C@@H](Cc2c[nH]c3ccccc23)C(=O)N[C@@H](Cc2ccc(O)cc2)C(=O)N[C@@H](CC(C)C)C(=O)N[C@H](C(=O)NCC(N)=O)CSCC(=O)N[C@@H](Cc2ccccc2)C(=O)N(C)[C@@H](Cc2ccccc2)C(=O)N1C (some centres unmarked) [Example 3500] (HELM PEPTIDE1{[O=C(C[*:3])[*:2]].F.[meF].[CCCCC(C(=O)[*:2])N(C)[*:1]].E.D.V.[meF].Y.[Sar].W.Y.L.C.G.[am]}$PEPTIDE1,PEPTIDE1,1:R3-14:R3$$$V2.0) | > 30.5 nM | – | > 74.3 nM |
| CCCC[C@H]1C(=O)N(C)CC(=O)N[C@@H](CCCNC(=N)N)C(=O)N[C@@H](C(C)C)C(=O)N(C)[C@@H](Cc2ccccc2)C(=O)N[C@@H](Cc2ccc(O)cc2)C(=O)N(C)CC(=O)N[C@@H](Cc2c[nH]c3ccccc23)C(=O)N[C@@H](Cc2ccc(O)cc2)C(=O)N[C@@H](CC(C)C)C(=O)N[C@H](C(=O)NCC(N)=O)CSCC(=O)N[C@@H](Cc2ccccc2)C(=O)N(C)[C@@H](Cc2ccccc2)C(=O)N1C [Example 3501] (HELM PEPTIDE1{[O=C(C[*:3])[*:2]].F.[meF].[CCCC[C@@H](C(=O)[*:2])N(C)[*:1]].[Sar].R.V.[meF].Y.[Sar].W.Y.L.C.G.[am]}$PEPTIDE1,PEPTIDE1,1:R3-14:R3$$$V2.0) | 6.76 to 30.3 nM | – | 4.78 to 72.9 nM |
| CCCC[C@H]1C(=O)N(C)CC(=O)N[C@@H](CCC(=O)O)C(=O)N[C@@H](C(C)C)C(=O)N(C)[C@@H](Cc2ccccc2)C(=O)N[C@@H](Cc2ccc(O)cc2)C(=O)N(C)CC(=O)N[C@@H](Cc2c[nH]c3ccccc23)C(=O)N[C@@H](Cc2ccc(O)cc2)C(=O)N[C@@H](CC(C)C)C(=O)N[C@H](C(=O)NCC(N)=O)CSCC(=O)N[C@@H](Cc2ccccc2)C(=O)N(C)[C@@H](Cc2ccccc2)C(=O)N1C [Example 3502] (HELM PEPTIDE1{[O=C(C[*:3])[*:2]].F.[meF].[CCCC[C@@H](C(=O)[*:2])N(C)[*:1]].[Sar].E.V.[meF].Y.[Sar].W.Y.L.C.G.[am]}$PEPTIDE1,PEPTIDE1,1:R3-14:R3$$$V2.0) | 6.76 to 30.3 nM | – | 4.78 to 72.9 nM |
| CCCC[C@H]1C(=O)N(C)CC(=O)N[C@@H](CC(=O)O)C(=O)N[C@@H](Cc2ccc(O)cc2)C(=O)N(C)[C@@H](Cc2ccccc2)C(=O)N[C@@H](Cc2ccc(O)cc2)C(=O)N(C)CC(=O)N[C@@H](Cc2c[nH]c3ccccc23)C(=O)N[C@@H](Cc2ccc(O)cc2)C(=O)N[C@@H](CC(C)C)C(=O)N[C@H](C(=O)NCC(N)=O)CSCC(=O)N[C@@H](Cc2ccccc2)C(=O)N(C)[C@@H](Cc2ccccc2)C(=O)N1C [Example 3503] (HELM PEPTIDE1{[O=C(C[*:3])[*:2]].F.[meF].[CCCC[C@@H](C(=O)[*:2])N(C)[*:1]].[Sar].D.Y.[meF].Y.[Sar].W.Y.L.C.G.[am]}$PEPTIDE1,PEPTIDE1,1:R3-14:R3$$$V2.0) | > 30.5 nM | – | > 74.3 nM |

Now from value to compound:

| IC50 [1] | IC50 [2, 3] | IC50 [2, 4] | SMILES |
| --- | --- | --- | --- |
| 0.385 to 6.74 nM | 0.158 to 4.71 nM | – | CCCC[C@H]1C(=O)N2CCC[C@@H]2C(=O)N2C[C@H](N)C[C@H]2C(=O)N[C@@H](C(C)C)C(=O)N(C)[C@@H](Cc2ccccc2)C(=O)N[C@@H](Cc2ccc(O)cc2)C(=O)N2CC[C@@H]2C(=O)N[C@@H](Cc2c[nH]c3ccccc23)C(=O)N[C@@H](Cc2ccc(O)cc2)C(=O)N[C@@H](CC(C)C)C(=O)N[C@H](C(=O)NCC(N)=O)CSCC(=O)N[C@@H](Cc2cc(F)c(F)c(F)c2)C(=O)N(C)[C@@H](Cc2ccccc2)C(=O)N1C [Example 3192] ({CH2CO}-[Phe(3,4,5-F3)][NMeF][NMeNle][dP][Pro(4R-NH2)]V[NMeF]Y[dAze]WYLCG-NH2; thioether N-13) |
| 0.385 to 6.74 nM | 0.158 to 4.71 nM | – | CCCC[C@H]1C(=O)N2CCC[C@@H]2C(=O)N2C[C@H](N)C[C@H]2C(=O)N[C@@H](C(C)C)C(=O)N(C)[C@@H](Cc2ccccc2)C(=O)N[C@@H](Cc2ccc(O)cc2)C(=O)N2CCC[C@@H]2C(=O)N[C@@H](Cc2c[nH]c3ccccc23)C(=O)N[C@@H](Cc2ccc(O)cc2)C(=O)N[C@@H](CC(C)C)C(=O)N[C@H](C(=O)NCC(N)=O)CSCC(=O)N[C@@H](Cc2cc(F)c(F)c(F)c2)C(=O)N(C)[C@@H](Cc2ccccc2)C(=O)N1C [Example 3193] ({CH2CO}-[Phe(3,4,5-F3)][NMeF][NMeNle][dP][Pro(4R-NH2)]V[NMeF]Y[dP]WYLCG-NH2; thioether N-13) |
| 0.385 to 6.74 nM | 0.158 to 4.71 nM | – | CCCC[C@H]1C(=O)N2C[C@H](O)C[C@@H]2C(=O)N2C[C@H](N)C[C@H]2C(=O)N[C@@H](C(C)C)C(=O)N(C)[C@@H](Cc2ccccc2)C(=O)N[C@@H](Cc2ccc(O)cc2)C(=O)N2CC[C@@H]2C(=O)N[C@@H](Cc2c[nH]c3ccccc23)C(=O)N[C@@H](Cc2ccc(O)cc2)C(=O)N[C@@H](CC(C)C)C(=O)N[C@H](C(=O)NCC(N)=O)CSCC(=O)N[C@@H](Cc2cc(F)c(F)c(F)c2)C(=O)N(C)[C@@H](Cc2ccccc2)C(=O)N1C [Example 3195] ({CH2CO}-[Phe(3,4,5-F3)][NMeF][NMeNle][d(cisHyp)][Pro(4R-NH2)]V[NMeF]Y[dAze]WYLCG-NH2; thioether N-13) |
| 0.385 to 6.74 nM | 0.158 to 4.71 nM | – | CCCC[C@H]1C(=O)N2C[C@H](O)C[C@@H]2C(=O)N2C[C@H](N)C[C@H]2C(=O)N[C@@H](C(C)C)C(=O)N(C)[C@@H](Cc2ccccc2)C(=O)N[C@@H](Cc2ccc(O)cc2)C(=O)N2CCCC[C@@H]2C(=O)N[C@@H](Cc2c[nH]c3ccccc23)C(=O)N[C@@H](Cc2ccc(O)cc2)C(=O)N[C@@H](CC(C)C)C(=O)N[C@H](C(=O)NCC(N)=O)CSCC(=O)N[C@@H](Cc2cc(F)c(F)c(F)c2)C(=O)N(C)[C@@H](Cc2ccccc2)C(=O)N1C [Example 3196] ({CH2CO}-[Phe(3,4,5-F3)][NMeF][NMeNle][d(cisHyp)][Pro(4R-NH2)]V[NMeF]Y[dPip]WYLCG-NH2; thioether N-13) |
| 0.385 to 6.74 nM | 0.158 to 4.71 nM | – | CCCC[C@H]1C(=O)N2C[C@H](O)C[C@@H]2C(=O)N2C[C@H](N)C[C@H]2C(=O)N[C@@H](C(C)C)C(=O)N(C)[C@@H](Cc2ccccc2)C(=O)N[C@@H](Cc2ccc(O)cc2)C(=O)N(C)[C@H](CCC(=O)O)C(=O)N[C@@H](Cc2c[nH]c3ccccc23)C(=O)N[C@@H](Cc2ccc(O)cc2)C(=O)N[C@@H](CC(C)C)C(=O)N[C@H](C(=O)NCC(N)=O)CSCC(=O)N[C@@H](Cc2cc(F)c(F)c(F)c2)C(=O)N(C)[C@@H](Cc2ccccc2)C(=O)N1C [Example 3197] ({CH2CO}-[Phe(3,4,5-F3)][NMeF][NMeNle][d(cisHyp)][Pro(4R-NH2)]V[NMeF]Y[dNMeE]WYLCG-NH2; thioether N-13) |
| 6.76 to 30.3 nM | 0.158 to 4.71 nM | – | CCCC[C@H]1C(=O)N2CCC[C@@H]2C(=O)N[C@@H](CC(N)=O)C(=O)N[C@@H](C(C)C)C(=O)N(C)[C@@H](Cc2ccccc2)C(=O)N[C@@H](Cc2ccc(CN)cc2)C(=O)N2CCC[C@@H]2C(=O)N[C@@H](Cc2c[nH]c3ccccc23)C(=O)N[C@@H](Cc2ccc(O)cc2)C(=O)N[C@@H](CCCCN)C(=O)N[C@H](C(=O)NCC(N)=O)CSCC(=O)N[C@@H](Cc2cc(F)c(F)c(F)c2)C(=O)N(C)[C@@H](Cc2ccccc2)C(=O)N1C [Example 3198] ({CH2CO}-[Phe(3,4,5-F3)][NMeF][NMeNle][dP]NV[NMeF][Phe(4-CH2NH2)][dP]WYKCG-NH2; thioether N-13) |
| 6.76 to 30.3 nM | 0.158 to 4.71 nM | – | CCCC[C@H]1C(=O)N2CCC[C@@H]2C(=O)N[C@@H](CO)C(=O)N[C@@H](C(C)C)C(=O)N(C)[C@@H](Cc2ccccc2)C(=O)N[C@@H](Cc2ccc(CN)cc2)C(=O)N2CCC[C@@H]2C(=O)N[C@@H](Cc2c[nH]c3ccccc23)C(=O)N[C@@H](Cc2ccc(O)cc2)C(=O)N[C@@H](CCCCN)C(=O)N[C@H](C(=O)NCC(N)=O)CSCC(=O)N[C@@H](Cc2cc(F)c(F)c(F)c2)C(=O)N(C)[C@@H](Cc2ccccc2)C(=O)N1C [Example 3199] ({CH2CO}-[Phe(3,4,5-F3)][NMeF][NMeNle][dP]SV[NMeF][Phe(4-CH2NH2)][dP]WYKCG-NH2; thioether N-13) |
